pIC50: −log10 of the molar value.
How the values were obtained:
[1] = target: Wee1-like protein kinase (Homo sapiens) (UniProt P30291); assay: WEE1 Kinase panel; details: Compound concentration 1.0 uM
[2] = target: Protein kinase C eta type (Homo sapiens) (UniProt P24723); assay: PKC_eta Kinase panel; details: Compound concentration 1.0 uM
[3] = target: Vascular endothelial growth factor receptor 2 (Homo sapiens) (UniProt P35968); assay: KDR Kinase panel; details: Compound concentration 1.0 uM
[4] = target: Mitogen-activated protein kinase kinase kinase 8 (Homo sapiens) (UniProt P41279); assay: Cot Kinase panel; details: Compound concentration 1.0 uM
[5] = target: D(1B) dopamine receptor (Homo sapiens) (UniProt P21918); details: Compound concentration 10.0 uM
[6] = target: Fibroblast growth factor receptor 1 (Homo sapiens) (UniProt P11362); assay: FGFR1 Kinase panel; details: Compound concentration 1.0 uM
[7] = target: Serine/threonine-protein kinase Nek4 (Homo sapiens) (UniProt P51957); assay: NEK4 Kinase panel; details: Compound concentration 1.0 uM
[8] = target: Serine/threonine-protein kinase PLK2 (Homo sapiens) (UniProt Q9NYY3); assay: PLK2 Kinase panel; details: Compound concentration 1.0 uM
[9] = target: Dual specificity protein kinase CLK2 (Homo sapiens) (UniProt P49760); assay: CLK2 Kinase panel; details: Compound concentration 1.0 uM
[10] = target: 5-hydroxytryptamine receptor 2C (Homo sapiens) (UniProt P28335); details: Compound concentration 10.0 uM
[11] = target: Non-receptor tyrosine-protein kinase TYK2 (Homo sapiens) (UniProt P29597); assay: TYK2 Kinase panel; details: Compound concentration 1.0 uM
[12] = target: TGF-beta receptor type-1 (Homo sapiens) (UniProt P36897); assay: TGFBR1 Kinase panel; details: Compound concentration 1.0 uM
[13] = target: Epidermal growth factor receptor (Homo sapiens) (UniProt P00533); assay: EGFR Kinase panel; details: Compound concentration 1.0 uM
[14] = target: Receptor-type tyrosine-protein kinase FLT3 (Homo sapiens) (UniProt P36888); assay: Flt3 Kinase panel; details: Compound concentration 1.0 uM
[15] = target: Serine/threonine-protein kinase Chk1 (Homo sapiens) (UniProt O14757); assay: CHK1 Kinase panel; details: Compound concentration 1.0 uM
[16] = target: cGMP-dependent protein kinase 1 (Homo sapiens) (UniProt Q13976); assay: PKG1_alpha Kinase panel; details: Compound concentration 1.0 uM
[17] = target: Interleukin-1 receptor-associated kinase 4 (Homo sapiens) (UniProt Q9NWZ3); assay: IRAK4 Kinase panel; details: Compound concentration 1.0 uM
[18] = target: Tyrosine-protein kinase JAK2 (Homo sapiens, UniProt O60674); assay: NanoBRET assay (JAK2, SGC Frankfurt)
[19] = target: Receptor tyrosine-protein kinase erbB-4 (Homo sapiens) (UniProt Q15303); assay: ErbB4 Kinase panel; details: Compound concentration 1.0 uM
[20] = target: Serine/threonine-protein kinase 25 (Homo sapiens) (UniProt O00506); assay: YSK1 Kinase panel; details: Compound concentration 1.0 uM
[21] = target: Casein kinase I isoform gamma-2 (Homo sapiens) (UniProt P78368); assay: CK1_gamma2 Kinase panel; details: Compound concentration 1.0 uM
[22] = target: Muscarinic acetylcholine receptor M1 (Homo sapiens) (UniProt P11229); details: Compound concentration 10.0 uM
[23] = target: Alpha-1B adrenergic receptor (Homo sapiens) (UniProt P35368); details: Compound concentration 10.0 uM
[24] = target: STE20-like serine/threonine-protein kinase (Homo sapiens) (UniProt Q9H2G2); assay: SLK Kinase panel; details: Compound concentration 1.0 uM
[25] = target: Ephrin type-A receptor 1 (Homo sapiens) (UniProt P21709); assay: EphA1 Kinase panel; details: Compound concentration 1.0 uM
[26] = target: 5-hydroxytryptamine receptor 1D (Homo sapiens) (UniProt P28221); details: Compound concentration 10.0 uM
[27] = target: Histamine H2 receptor (Homo sapiens) (UniProt P25021); details: Compound concentration 10.0 uM
[28] = target: Protein kinase C delta type (Homo sapiens) (UniProt Q05655); assay: PKC_delta Kinase panel; details: Compound concentration 1.0 uM
[29] = target: Mitogen-activated protein kinase 1 (Homo sapiens) (UniProt P28482); assay: ERK2 Kinase panel; details: Compound concentration 1.0 uM
[30] = target: Muscle, skeletal receptor tyrosine-protein kinase (Homo sapiens) (UniProt O15146); assay: MuSK Kinase panel; details: Compound concentration 1.0 uM
[31] = target: Serine/threonine-protein kinase B-raf (Homo sapiens) (UniProt P15056); assay: B-Raf Kinase panel; details: Compound concentration 1.0 uM
[32] = target: Cyclin-dependent kinase 2/cyclin A (Homo sapiens) (UniProt P24941+P20248+P78396); assay: CDK2/cyclinA Kinase panel; assay type: protein-complex assay; details: Compound concentration 1.0 uM
[33] = target: High affinity nerve growth factor receptor (Homo sapiens, UniProt P04629); assay: TrkA Kinase panel
[34] = target: Tyrosine-protein kinase Fgr (Homo sapiens) (UniProt P09769); assay: Fgr Kinase panel; details: Compound concentration 1.0 uM
[35] = target: 5-hydroxytryptamine receptor 1E (Homo sapiens) (UniProt P28566); details: Compound concentration 10.0 uM
[36] = target: Cytoplasmic tyrosine-protein kinase BMX (Homo sapiens) (UniProt P51813); assay: Bmx Kinase panel; details: Compound concentration 1.0 uM
[37] = target: Rho-associated protein kinase 1 (Homo sapiens) (UniProt Q13464); assay: ROCK1 Kinase panel; details: Compound concentration 1.0 uM
[38] = target: Tyrosine-protein kinase Mer (Homo sapiens) (UniProt Q12866); assay: Mer Kinase panel; details: Compound concentration 1.0 uM
[39] = target: Serine/threonine-protein kinase N1 (Homo sapiens) (UniProt Q16512); assay: PRK1 Kinase panel; details: Compound concentration 1.0 uM
[40] = target: Mitogen-activated protein kinase kinase kinase 20 (Homo sapiens) (UniProt Q9NYL2); assay: ZAK Kinase panel; details: Compound concentration 1.0 uM
[41] = target: Tyrosine-protein kinase ABL1 (Homo sapiens) (UniProt P00519); assay: Abl Kinase panel; details: Compound concentration 1.0 uM
[42] = target: Sodium-dependent noradrenaline transporter (Homo sapiens) (UniProt P23975); details: Compound concentration 10.0 uM
[43] = target: Activin receptor type-2B (Homo sapiens) (UniProt Q13705); assay: ACVR2B Kinase panel; details: Compound concentration 1.0 uM
[44] = target: Phosphatidylinositol 4,5-bisphosphate 3-kinase catalytic subunit alpha isoform (Homo sapiens) (UniProt P42336); assay: PI3KA Kinase panel; details: Compound concentration 1.0 uM
Misshapen-like kinase 1 = Misshapen-like kinase 1 (Homo sapiens, UniProt Q8N4C8); assay: Mink1 Kinase panel
[45] = target: Sodium-dependent dopamine transporter (Homo sapiens) (UniProt Q01959); details: Compound concentration 10.0 uM
[46] = target: Dual specificity mitogen-activated protein kinase kinase 6 (Homo sapiens) (UniProt P52564); assay: MKK6 Kinase panel; details: Compound concentration 1.0 uM
[47] = target: Protein kinase C zeta type (Homo sapiens) (UniProt Q05513); assay: PKC_zeta Kinase panel; details: Compound concentration 1.0 uM
[48] = target: Cyclin-dependent kinase 5/CDK5 activator 1 (Homo sapiens) (UniProt Q00535+Q15078); assay: CDK5/p25 Kinase panel; assay type: protein-complex assay; details: Compound concentration 1.0 uM
[49] = target: Dual specificity protein kinase CLK1 (Homo sapiens) (UniProt P49759); assay: CLK1 Kinase panel; details: Compound concentration 1.0 uM
[50] = target: Serine/threonine-protein kinase 4 (Homo sapiens) (UniProt Q13043); assay: MST1 Kinase panel; details: Compound concentration 1.0 uM
[51] = target: Tyrosine-protein kinase ZAP-70 (Homo sapiens) (UniProt P43403); assay: ZAP-70 Kinase panel; details: Compound concentration 1.0 uM
Homo sapiens = species: Homo sapiens; assay: PKA Kinase panel; details: Compound concentration 1.0 uM
[52] = target: MAP/microtubule affinity-regulating kinase 3 (Homo sapiens) (UniProt P27448); assay: MARK3 Kinase panel; details: Compound concentration 1.0 uM

Sequence of Receptor tyrosine-protein kinase erbB-4 (Homo sapiens) (Q15303 whole entry): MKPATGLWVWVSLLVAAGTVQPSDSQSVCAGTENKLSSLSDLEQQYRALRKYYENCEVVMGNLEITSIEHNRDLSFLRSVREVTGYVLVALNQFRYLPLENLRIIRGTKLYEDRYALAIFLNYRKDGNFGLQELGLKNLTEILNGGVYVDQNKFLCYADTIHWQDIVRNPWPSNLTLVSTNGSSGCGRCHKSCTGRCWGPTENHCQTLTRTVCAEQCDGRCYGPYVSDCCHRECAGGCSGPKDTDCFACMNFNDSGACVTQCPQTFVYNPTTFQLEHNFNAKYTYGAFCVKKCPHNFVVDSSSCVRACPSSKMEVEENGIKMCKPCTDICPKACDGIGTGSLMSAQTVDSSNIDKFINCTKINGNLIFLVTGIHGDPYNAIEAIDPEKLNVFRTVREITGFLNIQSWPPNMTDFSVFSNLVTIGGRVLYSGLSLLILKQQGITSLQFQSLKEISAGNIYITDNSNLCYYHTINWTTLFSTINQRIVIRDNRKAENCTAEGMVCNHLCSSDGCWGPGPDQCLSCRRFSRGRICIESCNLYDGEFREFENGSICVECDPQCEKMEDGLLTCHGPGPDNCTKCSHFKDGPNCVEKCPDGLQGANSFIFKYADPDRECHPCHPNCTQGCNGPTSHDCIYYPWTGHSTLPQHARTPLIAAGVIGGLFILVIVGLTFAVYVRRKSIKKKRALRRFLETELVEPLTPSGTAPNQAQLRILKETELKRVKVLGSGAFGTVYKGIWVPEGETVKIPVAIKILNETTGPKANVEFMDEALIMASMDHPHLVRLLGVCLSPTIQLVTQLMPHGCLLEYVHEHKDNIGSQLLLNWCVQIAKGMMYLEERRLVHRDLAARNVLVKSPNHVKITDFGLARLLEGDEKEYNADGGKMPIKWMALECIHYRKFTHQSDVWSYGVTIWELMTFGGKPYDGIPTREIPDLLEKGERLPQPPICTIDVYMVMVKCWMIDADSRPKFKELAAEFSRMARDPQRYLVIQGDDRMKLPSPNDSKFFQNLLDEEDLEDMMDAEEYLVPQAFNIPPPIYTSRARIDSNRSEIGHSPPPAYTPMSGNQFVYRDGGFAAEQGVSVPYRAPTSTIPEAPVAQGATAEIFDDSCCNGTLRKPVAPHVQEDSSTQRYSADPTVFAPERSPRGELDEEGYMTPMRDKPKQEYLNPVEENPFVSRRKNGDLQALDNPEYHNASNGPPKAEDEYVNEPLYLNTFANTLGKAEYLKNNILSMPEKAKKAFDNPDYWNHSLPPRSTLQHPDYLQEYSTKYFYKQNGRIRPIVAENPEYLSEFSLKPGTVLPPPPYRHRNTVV
Sequence of Wee1-like protein kinase (Homo sapiens) (P30291 whole entry, looked up): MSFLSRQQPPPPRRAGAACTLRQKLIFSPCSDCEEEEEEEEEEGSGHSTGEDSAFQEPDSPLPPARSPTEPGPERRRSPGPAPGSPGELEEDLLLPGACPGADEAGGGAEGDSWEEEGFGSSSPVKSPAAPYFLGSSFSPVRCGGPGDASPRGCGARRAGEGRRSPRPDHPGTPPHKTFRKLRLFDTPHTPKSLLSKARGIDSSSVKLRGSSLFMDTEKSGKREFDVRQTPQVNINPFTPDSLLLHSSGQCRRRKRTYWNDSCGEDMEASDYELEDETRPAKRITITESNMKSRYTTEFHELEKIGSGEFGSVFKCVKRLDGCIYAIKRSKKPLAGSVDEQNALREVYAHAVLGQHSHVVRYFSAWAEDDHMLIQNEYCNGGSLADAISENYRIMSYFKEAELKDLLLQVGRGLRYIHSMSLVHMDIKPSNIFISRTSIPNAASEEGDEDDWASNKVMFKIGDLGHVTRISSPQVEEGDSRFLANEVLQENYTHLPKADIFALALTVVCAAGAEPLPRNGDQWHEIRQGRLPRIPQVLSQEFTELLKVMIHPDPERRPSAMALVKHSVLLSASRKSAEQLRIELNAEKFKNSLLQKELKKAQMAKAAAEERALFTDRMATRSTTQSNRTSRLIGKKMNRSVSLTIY
Sequence of Non-receptor tyrosine-protein kinase TYK2 (Homo sapiens) (P29597 whole entry): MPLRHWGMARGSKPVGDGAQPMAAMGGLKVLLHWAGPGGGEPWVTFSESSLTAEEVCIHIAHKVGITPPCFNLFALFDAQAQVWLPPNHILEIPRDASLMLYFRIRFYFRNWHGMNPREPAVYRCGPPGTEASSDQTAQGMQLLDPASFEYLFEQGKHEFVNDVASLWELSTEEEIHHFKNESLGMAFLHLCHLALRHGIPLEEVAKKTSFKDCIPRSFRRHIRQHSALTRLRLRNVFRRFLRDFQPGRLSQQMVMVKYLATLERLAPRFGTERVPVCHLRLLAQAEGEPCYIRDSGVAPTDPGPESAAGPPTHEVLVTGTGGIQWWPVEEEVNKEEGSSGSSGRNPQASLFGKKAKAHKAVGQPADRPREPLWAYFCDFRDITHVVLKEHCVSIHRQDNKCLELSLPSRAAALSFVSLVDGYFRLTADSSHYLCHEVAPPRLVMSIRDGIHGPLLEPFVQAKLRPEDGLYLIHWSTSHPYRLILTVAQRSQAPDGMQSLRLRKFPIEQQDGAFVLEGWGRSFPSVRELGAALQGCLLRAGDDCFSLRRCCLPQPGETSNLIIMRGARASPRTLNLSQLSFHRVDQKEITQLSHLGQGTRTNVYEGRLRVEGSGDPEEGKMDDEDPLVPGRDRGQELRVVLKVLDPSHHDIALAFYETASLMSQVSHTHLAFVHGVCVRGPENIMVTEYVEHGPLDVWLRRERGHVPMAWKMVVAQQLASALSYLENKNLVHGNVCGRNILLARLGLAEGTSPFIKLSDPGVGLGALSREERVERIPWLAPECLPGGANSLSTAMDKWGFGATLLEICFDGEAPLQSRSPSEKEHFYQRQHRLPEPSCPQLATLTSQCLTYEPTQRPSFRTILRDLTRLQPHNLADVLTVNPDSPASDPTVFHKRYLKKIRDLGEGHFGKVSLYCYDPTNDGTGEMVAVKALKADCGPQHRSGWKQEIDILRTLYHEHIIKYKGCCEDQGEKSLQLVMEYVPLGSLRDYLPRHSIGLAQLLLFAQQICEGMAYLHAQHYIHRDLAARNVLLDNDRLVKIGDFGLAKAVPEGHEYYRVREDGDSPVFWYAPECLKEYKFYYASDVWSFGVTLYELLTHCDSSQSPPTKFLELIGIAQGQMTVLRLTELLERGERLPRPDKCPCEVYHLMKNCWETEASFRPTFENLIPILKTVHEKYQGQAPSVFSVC
Sequence of Sodium-dependent dopamine transporter (Homo sapiens) (Q01959 whole entry): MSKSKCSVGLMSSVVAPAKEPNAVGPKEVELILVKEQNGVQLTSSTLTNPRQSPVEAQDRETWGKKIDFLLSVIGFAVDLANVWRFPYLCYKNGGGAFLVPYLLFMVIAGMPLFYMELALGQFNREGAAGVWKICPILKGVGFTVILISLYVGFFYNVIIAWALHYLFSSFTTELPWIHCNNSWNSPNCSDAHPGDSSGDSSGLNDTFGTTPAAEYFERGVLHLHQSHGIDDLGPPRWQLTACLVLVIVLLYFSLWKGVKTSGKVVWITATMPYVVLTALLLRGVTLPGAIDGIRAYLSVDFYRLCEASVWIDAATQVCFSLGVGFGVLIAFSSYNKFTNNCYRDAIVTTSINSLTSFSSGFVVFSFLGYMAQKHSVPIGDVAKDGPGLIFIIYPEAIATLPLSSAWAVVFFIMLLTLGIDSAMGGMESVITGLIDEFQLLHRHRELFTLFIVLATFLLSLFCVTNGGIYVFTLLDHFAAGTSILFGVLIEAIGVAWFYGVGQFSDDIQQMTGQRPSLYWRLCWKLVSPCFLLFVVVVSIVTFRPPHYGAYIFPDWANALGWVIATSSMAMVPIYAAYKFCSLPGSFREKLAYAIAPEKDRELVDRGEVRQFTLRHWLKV
Sequence of Tyrosine-protein kinase JAK2 (O60674 whole entry): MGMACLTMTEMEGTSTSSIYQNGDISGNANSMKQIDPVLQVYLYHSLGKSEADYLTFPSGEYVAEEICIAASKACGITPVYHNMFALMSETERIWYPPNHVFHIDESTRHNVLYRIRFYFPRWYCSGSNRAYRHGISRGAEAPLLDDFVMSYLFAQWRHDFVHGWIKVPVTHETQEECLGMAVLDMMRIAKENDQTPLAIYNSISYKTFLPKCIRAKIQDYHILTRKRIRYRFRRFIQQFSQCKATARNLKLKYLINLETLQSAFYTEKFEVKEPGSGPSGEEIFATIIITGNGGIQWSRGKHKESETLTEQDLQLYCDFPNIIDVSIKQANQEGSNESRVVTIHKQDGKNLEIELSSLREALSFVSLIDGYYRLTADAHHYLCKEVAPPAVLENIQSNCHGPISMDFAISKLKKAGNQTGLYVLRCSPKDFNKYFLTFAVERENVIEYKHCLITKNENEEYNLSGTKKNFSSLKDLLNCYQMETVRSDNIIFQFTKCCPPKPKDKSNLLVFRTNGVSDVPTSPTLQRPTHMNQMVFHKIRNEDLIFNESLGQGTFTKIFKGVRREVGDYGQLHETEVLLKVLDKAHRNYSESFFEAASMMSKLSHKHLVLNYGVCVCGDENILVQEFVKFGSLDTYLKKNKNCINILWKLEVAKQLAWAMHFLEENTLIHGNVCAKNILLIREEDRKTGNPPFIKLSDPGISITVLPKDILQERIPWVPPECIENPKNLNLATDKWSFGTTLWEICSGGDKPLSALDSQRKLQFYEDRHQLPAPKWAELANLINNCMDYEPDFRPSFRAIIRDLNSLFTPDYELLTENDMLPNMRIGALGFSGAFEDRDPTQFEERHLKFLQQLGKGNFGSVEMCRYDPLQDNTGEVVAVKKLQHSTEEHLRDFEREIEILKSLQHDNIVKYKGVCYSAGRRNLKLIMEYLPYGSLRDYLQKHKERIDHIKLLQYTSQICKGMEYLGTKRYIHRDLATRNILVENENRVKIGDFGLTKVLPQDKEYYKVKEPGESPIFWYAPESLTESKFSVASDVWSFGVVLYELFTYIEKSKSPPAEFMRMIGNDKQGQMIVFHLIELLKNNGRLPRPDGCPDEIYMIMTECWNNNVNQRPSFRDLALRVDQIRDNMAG

`CC(C)(O)[C@H](F)CN1Cc2cc(NC(=O)c3cnn4cccnc34)c(N3CCOCC3)cc2C1=O` was tested, and the inhibition [1] was 5.5%, the inhibition [2] was 8% and the inhibition [3] was 17%. It also gave an inhibition [4] of 3%, an inhibition [5] of -6.56% and an inhibition [6] of 5.5%. The inhibition [7] was 10%, the inhibition [8] was -3.5% and the inhibition [9] was 20.3%. The inhibition [10] was 1.26%, the inhibition [11] was 53.5% and the inhibition [12] was 0.5%. The inhibition [13] was 6.8%, the inhibition [14] was 90.8% and the inhibition [15] was 3%. The inhibition [16] was 1%, the inhibition [17] was 101% and the EC50 [18] was > 50 µM (not active). For the same compound, the inhibition [19] was 5%, the inhibition [20] was 5% and the inhibition [21] was 5%. It also gave an inhibition [22] of -9.03%, an inhibition [23] of -5.24% and an inhibition [24] of 4%. The inhibition [25] was 20.8%, the inhibition [26] was 33.2% and the inhibition [27] was -2.71%. For the same compound, the inhibition [28] was 12.5%, the inhibition [29] was 0.5% and the inhibition [30] was 13%. The inhibition [31] was -0.5%, the inhibition [32] was 3% and the pIC50 [33] was 6.50. It also gave an inhibition ([33]; Compound concentration 1.0 uM) of 71%, an inhibition [34] of 53% and an inhibition [35] of 1.48%. For the same compound, the inhibition [36] was 33.3%, the inhibition [37] was 5% and the inhibition [38] was 28%. It also gave an inhibition [39] of 0.5%, an inhibition [40] of 5.5% and an inhibition [41] of 9.8%. For the same compound, the inhibition [42] was 2.12%, the inhibition [43] was 12.5% and the inhibition [44] was 21.5%. It also gave a pIC50 (Misshapen-like kinase 1) of 6.06, an inhibition (Misshapen-like kinase 1; Compound concentration 1.0 uM) of 80.5% and an inhibition [45] of 20%. For the same compound, the inhibition [46] was -5.5%, the inhibition [47] was 6% and the inhibition [48] was 9%. It also gave an inhibition [49] of 7.5%, an inhibition [50] of -1% and an inhibition [51] of -6.5%. The inhibition (Homo sapiens) was 5% and the inhibition [52] was 8.5%.

Source: ChEMBL document CHEMBL4879554, “Data for DCP probe GNE-2256” (2021)
